This is an account of results in publication PMC5218480 (PLoS ONE, 2017).

This experiment relates to MV-4-11 cells. The experiment in a line: Gene expression microarray analysis (Affymetrix PrimeView) and GSEA. The experiment is classed as cell-based, human. Further details: RFU PODN (11730768_x_at) / Fold change /veh PODN (11730768_x_at) / RFU LINC00158 (11744669_a_at) / Fold change /veh LINC00158 (11744669_a_at) / RFU DUSP10 (11751237_a_at) / Fold change /veh DUSP10 (11751237_a_at) / RFU ID3 (11757404_x_at) / Fold change /veh ID3 (11757404_x_at) / RFU PLEKHG5 (11737974_s_at) / Fold change /veh PLEKHG5 (11737974_s_at) / RFU LRRC4B (11730491_at) / Fold change /veh LRRC4B (11730491_at) / RFU GIMAP4 (11747438_a_at) / Fold change /veh GIMAP4 (11747438_a_at) / RFU KRT8 (11758183_x_at) / Fold change /veh KRT8 (11758183_x_at) / RFU CNN1 (11734310_a_at) / Fold change /veh CNN1 (11734310_a_at) / RFU VPS37D (11726825_at) / Fold change /veh VPS37D (11726825_at) / RFU C10orf10 (11716522_x_at) / Fold change /veh C10orf10 (11716522_x_at) / RFU KIR2DL2 /// KIR2DL4 /// KIR2DL5A /// KIR2DL5B /// KIR2DS1 /// KIR2DS2 /// KIR2DS3 /// KIR2DS4 /// KIR3DL3 /// KIR3DL3 /// KIR3DS1 (11738374_at) / Fold change /veh KIR2DL2 /// KIR2DL4 /// KIR2DL5A /// KIR2DL5B /// KIR2DS1 /// KIR2DS2 /// KIR2DS3 /// KIR2DS4 /// KIR3DL3 /// KIR3DL3 /// KIR3DS1 (11738374_at) / RFU C1QL1 (11718748_at) / Fold change /veh C1QL1 (11718748_at) / RFU TMPRSS4 (11747572_a_at) / Fold change /veh TMPRSS4 (11747572_a_at) / RFU HAMP (11756126_x_at) / Fold change /veh HAMP (11756126_x_at) / RFU RNFT2 (11725882_a_at) / Fold change /veh RNFT2 (11725882_a_at) / RFU NR4A2 (11747474_a_at) / Fold change /veh NR4A2 (11747474_a_at) / RFU ABCC12 (11746883_a_at) / Fold change /veh ABCC12 (11746883_a_at) / RFU TMEM136 (11760407_x_at) / Fold change /veh TMEM136 (11760407_x_at) / RFU CLDN22 /// WWC2 (11732394_at) / Fold change /veh CLDN22 /// WWC2 (11732394_at) / RFU HLA-DPB1 (11760878_x_at) / Fold change /veh HLA-DPB1 (11760878_x_at) / RFU SPINT1 (11716480_a_at) / Fold change /veh SPINT1 (11716480_a_at) / RFU GAP43 (11754022_s_at) / Fold change /veh GAP43 (11754022_s_at) / RFU A4GNT (11735810_at) / Fold change /veh A4GNT (11735810_at) / RFU PRB3 (11715151_x_at) / Fold change /veh PRB3 (11715151_x_at) / RFU TUBB4B (11761932_at) / Fold change /veh TUBB4B (11761932_at) / RFU CAPN14 (11732068_a_at) / Fold change /veh CAPN14 (11732068_a_at) / RFU TMCC2 (11721928_a_at) / Fold change /veh TMCC2 (11721928_a_at) / RFU IRGQ (11745062_a_at) / Fold change /veh IRGQ (11745062_a_at) / RFU FAM174B (11720279_a_at) / Fold change /veh FAM174B (11720279_a_at) / RFU TMPRSS4 (11748680_a_at) / Fold change /veh TMPRSS4 (11748680_a_at) / RFU FAM212B (11763350_a_at) / Fold change /veh FAM212B (11763350_a_at) / RFU PLEKHG5 (11743358_a_at) / Fold change /veh PLEKHG5 (11743358_a_at) / RFU ZSCAN30 (11745921_a_at) / Fold change /veh ZSCAN30 (11745921_a_at) / RFU CMKLR1 (11741424_a_at) / Fold change /veh CMKLR1 (11741424_a_at) / RFU LOC101060620 /// MAPK8IP1 (11723275_at) / Fold change /veh LOC101060620 /// MAPK8IP1 (11723275_at) / RFU SPTSSB (11747773_x_at) / Fold change /veh SPTSSB (11747773_x_at) / RFU PRSS12 (11739890_at) / Fold change /veh PRSS12 (11739890_at) / RFU BIN1 (11741810_x_at) / Fold change /veh BIN1 (11741810_x_at) / RFU WNT11 (11732464_a_at) / Fold change /veh WNT11 (11732464_a_at) / RFU C10orf10 (11716521_a_at) / Fold change /veh C10orf10 (11716521_a_at) / RFU C5orf56 (11738089_at) / Fold change /veh C5orf56 (11738089_at) / RFU CYB561 (11721691_x_at) / Fold change /veh CYB561 (11721691_x_at) / RFU ANKRD19P (11752326_a_at) / Fold change /veh ANKRD19P (11752326_a_at) / RFU OR2T12 /// OR2T33 /// OR2T8 (11738714_s_at) / Fold change /veh OR2T12 /// OR2T33 /// OR2T8 (11738714_s_at) / RFU VCAN (11748164_a_at) / Fold change /veh VCAN (11748164_a_at) / RFU JSRP1 (11732532_at) / Fold change /veh JSRP1 (11732532_at) / RFU KRTAP10-11 (11738290_x_at) / Fold change /veh KRTAP10-11 (11738290_x_at) / RFU MYO3A (11730013_a_at) / Fold change /veh MYO3A (11730013_a_at) / RFU EBF3 (11725865_a_at) / Fold change /veh EBF3 (11725865_a_at) / RFU CAMK2N1 (11719241_x_at) / Fold change /veh CAMK2N1 (11719241_x_at) / RFU C5orf56 (11738088_a_at) / Fold change /veh C5orf56 (11738088_a_at) / RFU OLFML3 (11715873_a_at) / Fold change /veh OLFML3 (11715873_a_at) / RFU LOC100653217 /// NTM (11731650_a_at) / Fold change /veh LOC100653217 /// NTM (11731650_a_at) / RFU MAPK11 (11762145_a_at) / Fold change /veh MAPK11 (11762145_a_at) / RFU FIZ1 (11724087_x_at) / Fold change /veh FIZ1 (11724087_x_at) / RFU OASL (11726364_x_at) / Fold change /veh OASL (11726364_x_at) / RFU SOX15 (11748057_x_at) / Fold change /veh SOX15 (11748057_x_at) / RFU CD79A (11719716_a_at) / Fold change /veh CD79A (11719716_a_at) / RFU HIST1H1D (11736915_at) / Fold change /veh HIST1H1D (11736915_at) / RFU CASKIN2 (11723855_a_at) / Fold change /veh CASKIN2 (11723855_a_at) / RFU LOC730098 (11760151_x_at) / Fold change /veh LOC730098 (11760151_x_at) / RFU OR4N2 (11742367_at) / Fold change /veh OR4N2 (11742367_at) / RFU PRRT2 (11749266_a_at) / Fold change /veh PRRT2 (11749266_a_at) / RFU SNX32 (11753110_a_at) / Fold change /veh SNX32 (11753110_a_at) / RFU CDHR5 (11726645_a_at) / Fold change /veh CDHR5 (11726645_a_at) / RFU RCAN1 (11760418_a_at) / Fold change /veh RCAN1 (11760418_a_at) / RFU FAM167A (11723789_a_at) / Fold change /veh FAM167A (11723789_a_at) / RFU FAM26E (11764081_at) / Fold change /veh FAM26E (11764081_at) / RFU ISYNA1 (11749810_s_at) / Fold change /veh ISYNA1 (11749810_s_at) / RFU ACY1 (11761880_at) / Fold change /veh ACY1 (11761880_at) / RFU 11764098_at / Fold change /veh 11764098_at / RFU SAMD14 (11745864_x_at) / Fold change /veh SAMD14 (11745864_x_at) / RFU NPB (11741838_a_at) / Fold change /veh NPB (11741838_a_at) / RFU TMPRSS6 (11731388_a_at) / Fold change /veh TMPRSS6 (11731388_a_at) / RFU KRTAP10-2 (11738614_at) / Fold change /veh KRTAP10-2 (11738614_at) / RFU ARHGAP8 /// PRR5-ARHGAP8 (11727945_x_at) / Fold change /veh ARHGAP8 /// PRR5-ARHGAP8 (11727945_x_at) / RFU KRTAP5-7 /// NADSYN1 (11734609_at) / Fold change /veh KRTAP5-7 /// NADSYN1 (11734609_at) / RFU RASL12 (11751679_a_at) / Fold change /veh RASL12 (11751679_a_at) / RFU CDKN2B (11736163_a_at) / Fold change /veh CDKN2B (11736163_a_at) / RFU PRF1 (11729649_at) / Fold change /veh PRF1 (11729649_at) / RFU, ZNF638 /// ZNF638-IT1 / Fold change vs veh, ZNF638 /// ZNF638-IT1 / RFU, PANK3 / Fold change vs veh, PANK3 / RFU, SH3YL1 / Fold change vs veh, SH3YL1 / RFU, ZEB2 / Fold change vs veh, ZEB2 / RFU, NRIP1 / Fold change vs veh, NRIP1 / RFU, PTTG1IP / Fold change vs veh, PTTG1IP / RFU, CAPN2 / Fold change vs veh, CAPN2 / RFU, MED14 / Fold change vs veh, MED14 / RFU, SNORA58 / Fold change vs veh, SNORA58 / RFU, C1orf63 / Fold change vs veh, C1orf63 / RFU, LRRFIP1 / Fold change vs veh, LRRFIP1 / RFU, NDUFAF7 / Fold change vs veh, NDUFAF7 / RFU, SLC12A2 / Fold change vs veh, SLC12A2 / RFU, IBTK / Fold change vs veh, IBTK / RFU, ESF1 / Fold change vs veh, ESF1 / Fold change vs veh, TMEM50B / RFU, TAOK1 / Fold change vs veh, TAOK1 / RFU, ACBD3 / Fold change vs veh, ACBD3 / RFU, TMA16 / Fold change vs veh, TMA16 / RFU, RWDD3 / Fold change vs veh, RWDD3 / RFU, BCAT1 / Fold change vs veh, BCAT1 / RFU, EDEM3 / Fold change vs veh, EDEM3 / RFU, TMEM33 / Fold change vs veh, TMEM33 / RFU, WDR75 / Fold change vs veh, WDR75 / RFU, AHCTF1 / Fold change vs veh, AHCTF1 / RFU, TFRC / Fold change vs veh, TFRC / RFU, ZDHHC17 / Fold change vs veh, ZDHHC17 / RFU, NOM1 / Fold change vs veh, NOM1 / RFU, ARL8B / Fold change vs veh, ARL8B / RFU, ZBTB11 / Fold change vs veh, ZBTB11 / RFU, TAMM41 / Fold change vs veh, TAMM41 / RFU, KIAA1704 /// LOC100996395 / Fold change vs veh, KIAA1704 /// LOC100996395 / RFU, ING1 / Fold change vs veh, ING1 / RFU, TRMT61B / Fold change vs veh, TRMT61B / RFU, FUBP3 / Fold change vs veh, FUBP3 / RFU, TP53 / Fold change vs veh, TP53 / RFU, TNKS2 / Fold change vs veh, TNKS2 / RFU, ZFP14 / Fold change vs veh, ZFP14 / RFU, ACTR2 / Fold change vs veh, ACTR2 / RFU, PPP3R1 / Fold change vs veh, PPP3R1 / RFU, PIK3R1 / Fold change vs veh, PIK3R1 / RFU, HNRNPA1 / Fold change vs veh, HNRNPA1 / RFU, RNF170 / Fold change vs veh, RNF170 / RFU, ZNF28 / Fold change vs veh, ZNF28 / RFU, RNGTT / Fold change vs veh, RNGTT / RFU, OGT / Fold change vs veh, OGT / RFU, BRD1 / Fold change vs veh, BRD1 / RFU, MARS / Fold change vs veh, MARS / RFU, ZNF655 / Fold change vs veh, ZNF655 / RFU, FAHD1 / Fold change vs veh, FAHD1 / RFU, BDP1 / Fold change vs veh, BDP1 / RFU, LRRCC1 / Fold change vs veh, LRRCC1 / RFU, ARID1A / Fold change vs veh, ARID1A / RFU, ZNF146 / Fold change vs veh, ZNF146 / RFU, ZNF330 / Fold change vs veh, ZNF330 / RFU, GPN3 / Fold change vs veh, GPN3 / RFU, C9orf123 / Fold change vs veh, C9orf123 / RFU, N4BP2L2 / Fold change vs veh, N4BP2L2 / RFU, ARFIP1 / Fold change vs veh, ARFIP1 / RFU, FAM179B / Fold change vs veh, FAM179B / RFU, BCL10 / Fold change vs veh, BCL10 / RFU, UHRF1BP1L / Fold change vs veh, UHRF1BP1L / RFU, BET1 / Fold change vs veh, BET1 / RFU, CNOT2 / Fold change vs veh, CNOT2 / RFU, ZNF268 / Fold change vs veh, ZNF268 / Fold change vs veh, ZNF507 / RFU, DGCR2 / Fold change vs veh, DGCR2 / RFU, WDSUB1 / Fold change vs veh, WDSUB1 / Fold change vs veh, HSP90B1 /// MIR3652 / RFU, ADSS / Fold change vs veh, ADSS / RFU, GK / Fold change vs veh, GK / RFU, ZNF148 / Fold change vs veh, ZNF148 / RFU, TAF9 / Fold change vs veh, TAF9 / RFU, SLC1A5 / Fold change vs veh, SLC1A5 / RFU, SLMO2 / Fold change vs veh, SLMO2 / RFU, ABCC4 / Fold change vs veh, ABCC4 / RFU, LOC101060439 /// RAP1B / Fold change vs veh, LOC101060439 /// RAP1B / RFU, RFX7 / Fold change vs veh, RFX7 / RFU, GTPBP10 / Fold change vs veh, GTPBP10 / RFU, CNEP1R1 / Fold change vs veh, CNEP1R1 / RFU, BIVM-ERCC5 /// ERCC5 / Fold change vs veh, BIVM-ERCC5 /// ERCC5 / RFU, ILF3 / Fold change vs veh, ILF3 / RFU 11762660_at / Fold change /veh 11762660_at / RFU VCAN (11757783_s_at) / Fold change /veh VCAN (11757783_s_at) / RFU DDX43 (11728927_at) / Fold change /veh DDX43 (11728927_at) / RFU KRT8 (11758188_x_at) / Fold change /veh KRT8 (11758188_x_at) / RFU NKD1 (11759106_at) / Fold change /veh NKD1 (11759106_at) / RFU SRD5A1 (11742802_a_at) / Fold change /veh SRD5A1 (11742802_a_at) / RFU TPSAB1 /// TPSB2 (11721975_s_at) / Fold change /veh TPSAB1 /// TPSB2 (11721975_s_at) / RFU GSTM3 (11746129_a_at) / Fold change /veh GSTM3 (11746129_a_at) / RFU IL23R (11737362_x_at) / Fold change /veh IL23R (11737362_x_at) / RFU TMEM51 (11727254_a_at) / Fold change /veh TMEM51 (11727254_a_at) / RFU PIWIL2 (11732686_x_at) / Fold change /veh PIWIL2 (11732686_x_at) / RFU ORM1 (11744905_x_at) / Fold change /veh ORM1 (11744905_x_at) / RFU CCDC152 (11743942_at) / Fold change /veh CCDC152 (11743942_at) / RFU ECM1 (11717891_a_at) / Fold change /veh ECM1 (11717891_a_at) / RFU IL23R (11748794_a_at) / Fold change /veh IL23R (11748794_a_at) / RFU TNFAIP8L3 (11732012_x_at) / Fold change /veh TNFAIP8L3 (11732012_x_at) / RFU MBOAT4 (11741988_at) / Fold change /veh MBOAT4 (11741988_at) / RFU 11764193_at / Fold change /veh 11764193_at / RFU TMEM53 (11763286_at) / Fold change /veh TMEM53 (11763286_at) / RFU MAGEB2 (11727129_at) / Fold change /veh MAGEB2 (11727129_at) / RFU TMEM200A (11744735_a_at) / Fold change /veh TMEM200A (11744735_a_at) / RFU CCDC152 (11751479_a_at) / Fold change /veh CCDC152 (11751479_a_at) / RFU FAM211A (11726209_a_at) / Fold change /veh FAM211A (11726209_a_at) / RFU RGS16 (11746705_a_at) / Fold change /veh RGS16 (11746705_a_at) / RFU VCAN (11755009_s_at) / Fold change /veh VCAN (11755009_s_at) / RFU RHOB (11743442_s_at) / Fold change /veh RHOB (11743442_s_at) / RFU RGS16 (11720943_a_at) / Fold change /veh RGS16 (11720943_a_at) / RFU RGS16 (11720944_at) / Fold change /veh RGS16 (11720944_at) / RFU, VPS4B / Fold change vs veh, VPS4B / RFU, CREB1 / Fold change vs veh, CREB1 / RFU, DNAJC13 / Fold change vs veh, DNAJC13 / RFU, GNAQ / Fold change vs veh, GNAQ / RFU, CDK5R1 / Fold change vs veh, CDK5R1 / RFU, ZRANB3 / Fold change vs veh, ZRANB3 / RFU, CUL4A / Fold change vs veh, CUL4A / RFU, CCNY / Fold change vs veh, CCNY / RFU, UFL1 / Fold change vs veh, UFL1 / RFU, COG3 / Fold change vs veh, COG3 / RFU, DIAPH2 / Fold change vs veh, DIAPH2 / RFU, SKA2 / Fold change vs veh, SKA2 / RFU, AFF3 / Fold change vs veh, AFF3 / RFU, LMF1 / Fold change vs veh, LMF1 / RFU, IPO11 / Fold change vs veh, IPO11 / RFU, DFFB / Fold change vs veh, DFFB / RFU, FOXP1 / Fold change vs veh, FOXP1 / RFU, CARD8 / Fold change vs veh, CARD8 / RFU, STRN3 / Fold change vs veh, STRN3 / RFU, ADK / Fold change vs veh, ADK / RFU, RASSF2 / Fold change vs veh, RASSF2 / RFU, WIPF1 / Fold change vs veh, WIPF1 / RFU, LARP1B / Fold change vs veh, LARP1B / RFU, RASA1 / Fold change vs veh, RASA1 / RFU, RB1 / Fold change vs veh, RB1 / RFU, PPFIA1 / Fold change vs veh, PPFIA1 / RFU, MAT2A / Fold change vs veh, MAT2A / RFU, CCT5 / Fold change vs veh, CCT5 / RFU, WDR92 / Fold change vs veh, WDR92 / RFU, CUX1 / Fold change vs veh, CUX1 / RFU, TTC7A / Fold change vs veh, TTC7A / RFU, TMEM135 / Fold change vs veh, TMEM135 / RFU, DEPTOR / Fold change vs veh, DEPTOR / RFU, CPM / Fold change vs veh, CPM / RFU, DNAJB6 / Fold change vs veh, DNAJB6 / RFU, CACNA2D3 / Fold change vs veh, CACNA2D3 / RFU, DTX4 / Fold change vs veh, DTX4 / RFU, TFCP2 / Fold change vs veh, TFCP2 / RFU, GMCL1 /// GMCL1P1 / Fold change vs veh, GMCL1 /// GMCL1P1 / RFU, AEBP2 / Fold change vs veh, AEBP2 / RFU, SNHG1 /// SNORD22 /// SNORD25 /// SNORD26 /// SNORD27 /// SNORD28 /// SNORD29 /// SNORD31 / Fold change vs veh, SNHG1 /// SNORD22 /// SNORD25 /// SNORD26 /// SNORD27 /// SNORD28 /// SNORD29 /// SNORD31 / Fold change (Aza/veh), C12orf56 (ProbeSet 11735607_a_at) / Fold change (ACY-1035/veh), C12orf56 (ProbeSet 11735607_a_at) / Fold change (Aza/veh), FGFR1OP (ProbeSet 11751329_s_at) / Fold change (ACY-1035/veh), FGFR1OP (ProbeSet 11751329_s_at) / Fold change (Aza/veh), VPS36 (ProbeSet 11739960_a_at) / Fold change (ACY-1035/veh), VPS36 (ProbeSet 11739960_a_at) / RFU SYPL1 (11715823_x_at) / Fold change /veh SYPL1 (11715823_x_at) / RFU IGFBP7 (11715501_s_at) / Fold change /veh IGFBP7 (11715501_s_at) / RFU REEP3 (11722064_at) / Fold change /veh REEP3 (11722064_at) / RFU IGLL1 (11728026_x_at) / Fold change /veh IGLL1 (11728026_x_at): dose or concentration left out as unconfirmed. Conditions: ProbeSet 11753055_s_at; LIST B.

With `Nc1ccc(-c2cccs2)cc1NC(=O)c1ccc2c(c1)cc(C1CC1)n2CCN1CCOCC1` [ACY-1035], the “RFU, LOC101060439 /// RAP1B” value was determined as 639.03 RFU.
